# Results taken from patent US9739733B2, “Methods for monitoring tight clot formation” (T2 Biosystems, Inc., priority 2012, dated 2017).
# What was measured:
# [1] = PT clotting time, T2MR and Stago; parameters: species or system human; settings: spiked 10 ng/mL-1000 ng/mL
# Method: Clotting times were measured by […] by first establishing a time zero T2 value (i.e., by taking the first point or some sort of average or linear fit to the first 5-10 data points) of the T2 time curve, and second identifying the time point (i.e., the clotting time or PT time) in the T2 time curve when the T2 value had changed by a predetermined amount (e.g. 5% or 10%) indicative of clotting in the sample. From the observed PT clotting time the INR was calculated using the methods described in Jan et al., Clin. Chem. 35:840 (1989). […] 18 normal samples and 24 abnormal samples were tested against a reference range established by 20 normal samples. Abnormal samples with prolonged PT times were obtained by spiking increasing levels of the anti-Xa inhibitor Rivaroxiban (10 ng/mL-1000 ng/mL). Correlation with TEG clotting time was obtained across >40 normal patient samples with non-optimized R2 correlation of >0.8. (see FIG. 14B). PT time correlations with Stago for plasma (see FIG. 14D) and with Hemochron for whole blood (see FIG. 14C) were also found.
# platelet activity = test: T2MR platelet inhibition, heparin blood activated by AA+RF; format: cell-based, human; settings: 600 μM aspirin ex vivo
# Method: In this experiment platelet inhibition was monitored by the addition of 600 μM aspirin ex vivo to heparin blood prior to activation by AA+RF (samples were tested with and without aspirin). […] These studies confirmed that the clot signature was dependent on platelet activity.
# platelets = test: Tube-dried collagen as platelet activator, T2MR; format: cell-based; settings: 2 micrograms dried in microtube; whole blood and RBC-depleted plasma
# Method: Collagen is a potent activator of platelets, and recognition of exposed collagen from the cellular matrix is one of the in vivo signals for platelet activation. […] To prepare the tube, 2 micrograms (2 μL of a 1 mg/ml solution) was deposited in the bottom of a microtube and the tube placed at 37° C. for 2-5 hours. A tube prepared in this way can be kept at room temperature or at 37° C. for several weeks. To measure a T2MR signature 34 μL of citrated whole blood (or RBC-depleted blood) were added to the tube at 37 degrees; after 1 minute 2 μL of 0.2M CaCl2 was added and the sample placed in the magnet for relaxation measurements and analysis.
# platelets in whole blood [2] = settings: 5-20 μM epinephrine
# Method: A titration of epinephrine ranging from 5-20 μM was added to the activation cocktail (comprised of reptilase, factor XIIIa, calcium, and platelet activator). 4 μL of the activation cocktail was added to 36 μL of whole blood in a coated tube. The tube containing the reaction was placed in a T2MR reader. T2MR relaxation curve data was processed with an Inverse Laplace transformation algorithm.
# platelets in whole blood [3] = test: T2MR platelet-induced clot contraction with platelet agonist, uncoated polypropylene tube; format: cell-based, human
# Description: Platelet-induced clot contraction was used for measuring platelet activity and inhibition using a formulation of reptilase (RF), factor XIIIa (FXIIIa), and platelet agonist such as arachidonic acid (AA) or adenosine diphosphate (ADP). The RF and FXIIIa induce the formation of a fibrin mesh rapidly without activating platelets. This occurs rapidly as compared to clot contraction. In developing a platelet activity assay for the agonist arachidonic acid (AA) we were able to see reproducible […] signatures that titrated with the concentration of AA as expected ([…] curves acquired from whole blood with 0.5 mM, 1.0 mM, and 1.5 mM AA). In a typical clot contraction signal there is an upper […] signal that increases rapidly between 5 and 10 minutes and the appearance of a lower […] signal around the same point in time. The upper signal corresponds to water excreted from the clot and the lower signal corresponds to water trapped in the contracted clot. The lowest level has the slowest kinetics. […] In developing a platelet activity assay for the agonist ADP we encountered a problem with reproducibility. For example, in triplicate measures (3 samples obtained in parallel from freshly drawn blood) the clot contraction signal might appear for only one sample and/or the triplicate measures might vary in the signal intensity of the clot contraction signal. Reproducible results were obtained from AA, but not ADP. This is believed to result from the fact that AA is a stronger platelet activator than ADP. This conclusion is supported by the following observations. […] Second, aging the blood could lead to stronger clot contraction signals, presumably due to basal thrombin activation that led to more platelet induced clot contraction. Third, adding low levels of thrombin could lead to more platelet induced clot contraction. Therefore, there is a difference in the strength of platelet activation for AA and ADP.
# [4] = T2MR fibrinogen assay with thrombin; parameters: species or system human; settings: 45 μM MnSO4 in buffer diluent
# Method: T2MR measures the formation of fibrin directly in the whole blood or plasma in the presence of thrombin. The solution of thrombin (STAGO, 5 U/mL) is added to the diluted solution of plasma (or blood) and the change in T2 signal is monitored. The sample begins to clot immediately upon addition of thrombin, resulting in a rapid decrease in T2 signal. In order to achieve better sample relaxation rate and reduce noise in the measured T2 signal the paramagnetic material (MnSO4) is added to the buffer diluent (STAGO, Owren-Koller buffer), with a final concentration of the MnSO4 in diluent of 45 μM. […] The buffer diluent containing paramagnetic material is used to prepare thrombin 5 U/mL stock by diluting 80 U/mL stock and to prepare standard dilutions for the calibration curve.
# [5] = tested on: platelets in blood samples; test: T2MR ADP activation titration in Triton X-100 coated polypropylene tubes; format: cell-based, human; settings: Triton X-100 coated tube
# Method: Platelet-induced clot contraction was used for measuring platelet activity and inhibition using a formulation of reptilase (RF), factor XIIIa (FXIIIa), and platelet agonist such as arachidonic acid (AA) or adenosine diphosphate (ADP). The RF and FXIIIa induce the formation of a fibrin mesh rapidly without activating platelets. This occurs rapidly as compared to clot contraction. Briefly, blood samples were activated with varying levels of ADP in 0.2 mL polypropylene tubes coated with Triton X-100. […] Additionally, levels below […] are now able to show a clot contraction signal when the polypropylene surface is coated with Triton X-100. Furthermore, this signal is much stronger than that previously observed for ADP activated samples in polypropylene tubes without coating.
molecule,measurement,setting,value
O=C(NC[C@H]1CN(c2ccc(N3CCOCC3=O)cc2)C(=O)O1)c1ccc(Cl)s1 [Rivaroxiban],PT times,[1],prolonged
"CC(=O)Oc1ccccc1C(=O)O [aspirin, acetylsalicylic acid]",clot-associated T2 signal,platelet activity,dramatically diminished or absent
collagen,T2MR clot peak,platelets,effectively generate a T2MR clot peak
CNC[C@H](O)c1ccc(O)c(O)c1 [epinephrine],sample response (clot contraction),platelets in whole blood [2],responsive
same,timing of clot contraction,platelets in whole blood [2],dose dependent
"CCCCC/C=C\C/C=C\C/C=C\C/C=C\CCCC(=O)O [AA, arachidonic acid]",concentration that typically causes clot retraction,platelets in whole blood [3],0.5 to 1 mM
same,platelet-induced clot contraction,platelets in whole blood [3]; typical level of AA,strong platelet-induced clot contraction
O=S(=O)([O-])[O-].[Mn+2] [MnSO4],effect on the clotting process,[4],no significant effect
"Nc1ncnc2c1ncn2[C@@H]1O[C@H](COP(=O)(O)OP(=O)(O)O)[C@@H](O)[C@H]1O [ADP, adenosine diphosphate]",clot formation T2MR signal,[5]; 2.5 mM ADP,partial clot formation is observed
same,clot formation T2MR signal,[5]; 0.5 and 1 mM ADP,no clot formation signal is observed
same,clot formation T2MR signal,"[5]; 5, 10, 20 mM ADP",complete clot formation is observed
same,clot retraction after gel phase,platelets in whole blood [3]; ADP activation,retraction does not occur
same,platelet-induced clot contraction,platelets in whole blood [3]; ten-fold excess (over standard levels) of ADP,weak and irreproducible platelet-induced clot contraction
